Test results from US12209087B2, “AKT1 modulators” (Alterome Therapeutics, Inc., priority 2022, dated 2025).
pIC50: −log10 of the molar value.

Target: T1, full length AKT E17K (Homo sapiens, UniProt P31749, E17K)
T1 construct: host or cells: HEK-293 (ATCC CRL-1573)
Assay: NanoBRET Target Engagement (TE) Assay
Type: cell-based
Conditions: competitive displacement of tracer in cells, read-out: AKT1 E17K IC50
Outline: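 Compound and tracer incubated 2 h before luminescence at donor 450 nm and acceptor 600 nm, with extracellular signal inhibited. EC50 by sigmoidal variable-slope regression.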

T1 sequence (P31749 whole entry E17K): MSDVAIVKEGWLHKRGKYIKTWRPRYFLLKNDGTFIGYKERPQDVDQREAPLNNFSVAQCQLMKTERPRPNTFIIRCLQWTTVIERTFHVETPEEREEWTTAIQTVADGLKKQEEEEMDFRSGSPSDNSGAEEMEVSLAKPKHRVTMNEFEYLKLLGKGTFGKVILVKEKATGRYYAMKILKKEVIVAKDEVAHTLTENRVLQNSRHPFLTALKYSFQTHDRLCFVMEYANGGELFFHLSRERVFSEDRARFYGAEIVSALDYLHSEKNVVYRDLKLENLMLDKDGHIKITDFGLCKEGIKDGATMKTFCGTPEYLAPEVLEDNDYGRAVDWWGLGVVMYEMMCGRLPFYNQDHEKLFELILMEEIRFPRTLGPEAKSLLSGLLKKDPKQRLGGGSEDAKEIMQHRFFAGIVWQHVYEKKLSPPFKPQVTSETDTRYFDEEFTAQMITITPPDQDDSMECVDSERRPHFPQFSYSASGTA

pIC50 | Structure (SMILES)
7.22 to 7.82 | N#Cc1nccc(NC2CCN(Cc3ccc(-n4c(-c5cccnc5N)nc5ccc(-c6cnccc6C#N)nc54)cc3)CC2)n1 [Example 384, 4-((1-(4-(2-(2-Aminopyridin-3-yl)-5-(4-cyanopyridin-3-yl)-3H-imidazo[4,5-b]pyridin-3-yl)benzyl)piperidin-4-yl)amino)pyrimidine-2-carbonitrile]
7.22 to 7.82 | [2H]C([2H])(c1ccc(-n2c(-c3cccnc3N)nc3cccnc32)cc1)N1CCC(Nc2ccnc(C#N)n2)CC1 [Example 385, 4-((1-((4-(2-(2-Aminopyridin-3-yl)-3H-imidazo[4,5-b]pyridin-3-yl)phenyl)methyl-d2)piperidin-4-yl)amino)pyrimidine-2-carbonitrile]
7.22 to 7.82 | CN1CCCN(c2ccc3nc(-c4cccnc4N)n(-c4ccc(CN5CCN(c6ccnc(C#N)n6)CC5)cc4)c3n2)CC1=O [Example 386, 4-(4-(4-(2-(2-Aminopyridin-3-yl)-5-(4-methyl-3-oxo-1,4-diazepan-1-yl)-3H-imidazo[4,5-b]pyridin-3-yl)benzyl)piperazin-1-yl)pyrimidine-2-carbonitrile]
6.22 to 7.22 | N#Cc1nccc(NC2CCN(Cc3ccc(-n4c(-c5cccnc5N)nc5ccc(N6CCOCC6=O)nc54)cc3)CC2)n1 [Example 387, 4-((1-(4-(2-(2-Aminopyridin-3-yl)-5-(3-oxomorpholino)-3H-imidazo[4,5-b]pyridin-3-yl)benzyl)piperidin-4-yl)amino)pyrimidine-2-carbonitrile]
> 7.82 | N#Cc1nccc(NC2CCN(Cc3ccc(-n4c(-c5cccnc5N)nc5ccc(C6CCCC6)nc54)cc3)CC2)n1 [Example 388, 4-((1-(4-(2-(2-Aminopyridin-3-yl)-5-cyclopentyl-3H-imidazo[4,5-b]pyridin-3-yl)benzyl)piperidin-4-yl)amino)pyrimidine-2-carbonitrile]
> 7.82 | CN(C)c1ccc2nc(-c3cccnc3N)n(-c3ccc(CN4CCC(Nc5ccnc(C#N)n5)CC4)cc3)c2n1 [Example 389, 4-((1-(4-(2-(2-Aminopyridin-3-yl)-5-(dimethylamino)-3H-imidazo[4,5-b]pyridin-3-yl)benzyl)piperidin-4-yl)amino)pyrimidine-2-carbonitrile]
> 7.82 | N#Cc1ncnc(NC2CCN(Cc3ccc(-n4c(-c5cccnc5N)nc5ccc(-c6ccccc6)nc54)cc3)CC2)n1 [Example 391, 4-((1-(4-(2-(2-Aminopyridin-3-yl)-5-phenyl-3H-imidazo[4,5-b]pyridin-3-yl)benzyl)piperidin-4-yl)amino)-1,3,5-triazine-2-carbonitrile]
6.22 to 7.22 | CC1(Nc2ccnc(C#N)n2)CCN(Cc2ccc(-n3c(-c4cccnc4N)nc4cccnc43)cc2)CC1 [Example 392, 4-((1-(4-(2-(2-Aminopyridin-3-yl)-3H-imidazo[4,5-b]pyridin-3-yl)benzyl)-4-methylpiperidin-4-yl)amino)pyrimidine-2-carbonitrile]
5.00 to 6.22 | Cn1c(-c2ccc3nc(-c4cccnc4N)n(-c4ccc(CN5CCC(Nc6ccnc(C#N)n6)CC5)cc4)c3n2)cccc1=O [Example 393, 4-((1-(4-(2-(2-Aminopyridin-3-yl)-5-(1-methyl-6-oxo-1,6-dihydropyridin-2-yl)-3H-imidazo[4,5-b]pyridin-3-yl)benzyl)piperidin-4-yl)amino)pyrimidine-2-carbonitrile]
5.00 to 6.22 | Cn1c(-c2ccc3nc(-c4cccnc4N)n(-c4ccc(CN5CCN(c6ccnc(C#N)n6)CC5)cc4)c3n2)cccc1=O [Example 394, 4-(4-(4-(2-(2-Aminopyridin-3-yl)-5-(1-methyl-6-oxo-1,6-dihydropyridin-2-yl)-3H-imidazo[4,5-b]pyridin-3-yl)benzyl)piperazin-1-yl)pyrimidine-2-carbonitrile]
> 7.82 | COc1cccc(-c2ccc3nc(-c4cccnc4N)n(-c4ccc(CN5CCC(Nc6ccnc(C#N)n6)CC5)cc4)c3n2)c1 [Example 395, 4-((1-(4-(2-(2-Aminopyridin-3-yl)-5-(3-methoxyphenyl)-3H-imidazo[4,5-b]pyridin-3-yl)benzyl)piperidin-4-yl)amino)pyrimidine-2-carbonitrile]
7.22 to 7.82 | CC(C)(C)c1ccc2nc(-c3cccnc3N)n(-c3ccc(CN4CCC(Nc5ccnc(C#N)n5)CC4)cc3)c2n1 [Example 396, 4-((1-(4-(2-(2-Aminopyridin-3-yl)-5-(tert-butyl)-3H-imidazo[4,5-b]pyridin-3-yl)benzyl)piperidin-4-yl)amino)pyrimidine-2-carbonitrile]
> 7.82 | CCc1ccc2nc(-c3cccnc3N)n(-c3ccc(CN4CCC(Nc5ccnc(C#N)n5)CC4)cc3)c2n1 [Example 397, 4-((1-(4-(2-(2-Aminopyridin-3-yl)-5-ethyl-3H-imidazo[4,5-b]pyridin-3-yl)benzyl)piperidin-4-yl)amino)pyrimidine-2-carbonitrile]
> 7.82 | CNC(=O)c1ccc2nc(-c3cccnc3N)n(-c3ccc(CN4CCC(Nc5ccnc(C#N)n5)CC4)cc3)c2n1 [Example 398, 2-(2-Aminopyridin-3-yl)-3-(4-((4-((2-cyanopyrimidin-4-yl)amino)piperidin-1-yl)methyl)phenyl)-N-methyl-3H-imidazo[4,5-h]pyridine-5-carboxamide]
7.22 to 7.82 | N#Cc1nccc(N2CCN(Cc3ccc(-n4c(-c5cccnc5N)nc5ccc(-c6ccncc6C#N)nc54)cc3)CC2)n1 [Example 399, 4-(4-(4-(2-(2-Aminopyridin-3-yl)-5-(3-cyanopyridin-4-yl)-3H-imidazo[4,5-b]pyridin-3-yl)benzyl)piperazin-1-yl)pyrimidine-2-carbonitrile]
> 7.82 | N#Cc1nccc(NC2CCN(Cc3ccc(-n4c(-c5cccnc5N)nc5ccc(-c6ccncc6C#N)nc54)cc3)CC2)n1 [Example 400, 4-((1-(4-(2-(2-Aminopyridin-3-yl)-5-(3-cyanopyridin-4-yl)-3H-imidazo[4,5-b]pyridin-3-yl)benzyl)piperidin-4-yl)amino)pyrimidine-2-carbonitrile]
7.22 to 7.82 | N#Cc1nccc(NC2CCN(Cc3ccc(-n4c(-c5cccnc5N)nc5ccc(F)nc54)cc3)CC2)n1 [Example 401, 4-((1-(4-(2-(2-Aminopyridin-3-yl)-5-fluoro-3H-imidazo[4,5-b]pyridin-3-yl)benzyl)piperidin-4-yl)amino)pyrimidine-2-carbonitrile]
> 7.82 | N#Cc1nccc(NC2CCN(Cc3ccc(-n4c(-c5cccnc5N)nc5cc(F)cnc54)cc3)CC2)n1 [Example 402, 4-((1-(4-(2-(2-Aminopyridin-3-yl)-6-fluoro-3H-imidazo[4,5-b]pyridin-3-yl)benzyl)piperidin-4-yl)amino)pyrimidine-2-carbonitrile]
> 7.82 | N#Cc1nccc(NC2CCN(Cc3ccc(-n4c(-c5cccnc5N)nc5ccc(N6CCOC6=O)nc54)cc3)CC2)n1 [Example 403, 4-((1-(4-(2-(2-Aminopyridin-3-yl)-5-(2-oxooxazolidin-3-yl)-3H-imidazo[4,5-b]pyridin-3-yl)benzyl)piperidin-4-yl)amino)pyrimidine-2-carbonitrile]

Structure (SMILES) | pIC50
CN(c1ccnc(C#N)n1)C1CCN(Cc2ccc(-n3c(-c4cccnc4N)nc4cccnc43)cc2)CC1 [Example 390, 4-((1-(4-(2-(2-Aminopyridin-3-yl)-3H-imidazo[4,5-b]pyridin-3-yl)benzyl)piperidin-4-yl)(methyl)amino)pyrimidine-2-carbonitrile] | > 7.82
